According to US20260248787A9, “MEDICAMENT FOR TREATING CANCER COMPRISING OPTICALLY ACTIVE AZABICYCLO RING DERIVATIVE” (Sumitomo Pharma Co., Ltd., priority 2023, published 2026):

Legend:
[1] = system: MOLM-13 cells; assay: Tumor-bearing mice transplanted with MOLM-13 cells, with venetoclax and azacitidine, T/C (Example 10); type: in vivo; details: MOLM-13 tumor-bearing mice, oral, 15 days
Protocol: The present compound was weighed and dissolved in 0.5 w/v % Methyl Cellulose 400 solution to give the compound concentrations of 20 mg/mL and 10 mg/mL. Venetoclax was weighed and suspended in a mixed solution of Phosal 50 propylene glycol (60%)/Polyethylene glycol-400 (30%)/Ethanol (10%) to give the compound concentration of 5 mg/mL. Azacitidine was weighed and dissolved in saline to give the compound concentration of 0.3 mg/mL.
MOLM-13 cells (DSMZ) were intradermally implanted around the ventral region of 5-week old NOD. CB17-PrkdcSCID/J mice (female, The Jackson Laboratory Japan) at 1×10^6 cells/mouse. […] The tumor volume was measured over time from the start of the administration, and the reduction effect of the tumor volume due to the compound-administration was evaluated. The tumor volume was calculated by the following formula using short axis and long axis of the tumor measured with an electronic caliper (Mitutoyo).
(§1) The control administration group in which only the solvent was administered and the test substance administration group were compared, and T/C was calculated using the following formula to evaluate the antitumor effect.

[2] = system: HOXA9, MEIS1, PBX3, CD11b gene expression; assay: Phase 1/2 clinical study, pharmacodynamic gene expression biomarkers in bone marrow aspirate; type: in vivo, human
Excerpt: All dose levels and time points are combined.
(2) FIGS. 6A and 6B show average of the maximum percentage change of gene expression of leukemic (HOXA9, MEIS1, PBX3) and differentiation (CD11b) biomarkers in bone marrow aspirate of patients from all dose levels, for whom a baseline and post-baseline sample were collected.

[3] = system: acute leukemia with MLLr or NPM1m; assay: Phase 1/2 clinical study, clinical activity (responses by ELN 2017); type: in vivo, human
[4] = human, in vivo
Protocol: Arm A: Patients without azole antifungal treatment within 7 days (or 21 days for isavuconazole) of first dose of the present compound
Arm B: Patients receiving posaconazole, voriconazole, or fluconazole antifungal prophylaxis at enrollment
The safety of each dose level also was evaluated by the SRC, which was comprised of all investigators participating in the study and selected Sponsor study team members. The dose recommended by the BLRM method was treated as guidance and was integrated with a clinical assessment of toxicity information and review of other available data, including safety, PK, pharmacodynamic, and laboratory data.
When the Dose Limiting Toxicity (DLT) evaluation for each cohort was completed, the SRC determined a next dose level based on the DLT and other available data, including safety, PK, pharmacodynamic, and laboratory data with reference to the Bayesian Logistic Regression Model (BLRM) recommendation.
Dose escalation decisions were made after all patients in a dose level cohort have at least completed Cycle 1. All available data were presented along with the BLRM predictions for toxicity probabilities at the potential next dose levels. The SRC then determined the dose(s) for the next cohort(s).

[5] = system: MOLM-13 cells; assay: Tumor-bearing mice transplanted with MOLM-13 cells, with gilteritinib, T/C (Example 12); type: in vivo; details: MOLM-13 tumor-bearing mice, oral, 18 days
Protocol: The antitumor effects of the present compound and gilteritinib were evaluated. The present compound was weighed and dissolved in 0.5 w/v % Methyl Cellulose 400 solution to give the compound concentrations of 20 mg/mL and 10 mg/mL. Gilteritinib was weighed and suspended in 0.5 w/v % Methyl Cellulose 400 solution to give the compound concentrations of 3 mg/mL.
MOLM-13 cells (DSMZ) were intradermally implanted around the ventral region of 5-week old NOD. CB17-PrkdcSCID/J mice (female, The Jackson Laboratory Japan) at 1×10^6 cells/mouse. After confirming the engraftment of MOLM-13 cells 6 days after the transplantation, the present compound was orally administered to the mice at a dose of 100 mg/kg or 200 mg/kg, and gilteritinib was orally administered to the mice at a dose of 30 mg/kg, once a day for 18 days. The tumor volume was measured over time from the start of the administration, and the reduction effect of the tumor volume due to the compound-administration was evaluated. The tumor volume was calculated by the following formula using short axis and long axis of the tumor measured with an electronic caliper (Mitutoyo).
as §1

[6] = system: OCI-AML3 cells; assay: Tumor-bearing mice transplanted with OCI-AML3 cells, with cytarabine and daunorubicin, T/C (Example 14); type: in vivo; details: oral, 21 days
Protocol: Cytarabine (Cylocide Injection 200 mg/10 mL, Nippon Shinyaku Co., Ltd.) was diluted with saline (Otsuka Saline Injection, Otsuka Pharmaceutical Factory Co., Ltd.) to 8 mg/mL. Daunorubicin (Daunomycin for injection 20 mg, Meiji, Seika Pharma Co., Ltd.) was dissolved in saline (Otsuka Saline Injection, Otsuka Pharmaceutical Factory Co., Ltd.) to 0.2 mg/mL.
OCI-AML3 cells (DSMZ) were intradermally implanted around the ventral region of 7-week old NOD. CB17-PrkdcSCID/J mice (female, The Jackson Laboratory Japan) at 1×10^6 cells/mouse. […] Cytarabine was intraperitoneally administered to the mice at a dose of 80 mg/kg once a day for 5 days. Daunorubicin was intravenously administered to the mice at a dose of 1 mg/kg once a day for 3 days. The tumor volume was measured over time from the start of the administration, and the reduction effect of the tumor volume due to the compound-administration was evaluated. The tumor volume was calculated by the following formula using short axis and long axis of the tumor measured with an electronic caliper (Mitutoyo).
as §1

[7] = patients with MLLr or NPM1m AML, all dose levels and time points (FIG. 5)
[8] = patients with target mutations, all dose levels (FIGS. 6A, 6B)
[9] = patients, notable with MLLr or NPM1m (Example 3)
[10] = MLLr + NPM1m, ≥140 mg BID, n=21

SMILES: C=C1C[C@@H]2CC[C@H]1[C@@H](C(=O)N1CCC3(CC1)CN(c1ncncc1Oc1ccc(F)cc1C(=O)N(C(C)C)C(C)C)C3)N2 [the present compound, 5-fluoro-2-[(4-{7-[(1S,3S,4R)-5-methylidene-2-azabicyclo[2.2.2]octane-3-carbonyl]-2,7-diazaspiro[3.5]nonan-2-yl}pyrimidin-5-yl)oxy]-N,N-di(propan-2-yl)benzamide]
- T/C ([1]; 100 mg/kg): 22.6%
- T/C ([1]; 200 mg/kg): 8.4%
- gene expression of CD11b in bone marrow aspirate [2, 7]: increases
- gene expression of HOXA9, PBX3 and MEIS1 in bone marrow aspirate [2, 7]: Clear decreases
- gene expression of CD11b in bone marrow aspirate [2, 8]: increases
- gene expression of HOXA9, PBX3 and MEIS1 in bone marrow aspirate [2, 8]: Clear decreases
- change in CD11b [2, 9]: increases
- change in HOXA9, PBX3 and MEIS1 [2, 9]: decreases
- responders per ELN 2017 ([3]; 43 enrolled, MLLr or NPM1m, 19 evaluable): 5 responders
- objective response rate (ORR) by ELN 2017 (CR+CRi+MLFS) ([3]; MLLr (20 AML, 2 ALL), ≥140 mg BID, no prior menin inhibitor (13/22)): 59.1%
- CR + CRh (ELN 2017) [3, 10]: 5 (24%) n (%)
- Composite CR (ELN 2017) [3, 10]: 7 (33%) n (%)
- Objective Response Rate (ELN 2017) [3, 10]: 12 (57%) n (%)
- CR+CRh ([3]; MLLr or NPM1m, all dose levels 40-300 mg BID, prior menin inhibitor naïve, finished 1 cycle (6/38)): 16%
- ORR ([3]; MLLr or NPM1m, all dose levels 40-300 mg BID, prior menin inhibitor naïve, finished 1 cycle (12/38)): 32%
- CR+CRh rate ([3]; MLLr or NPM1m, ≥140 mg BID, prior menin inhibitor naïve, finished 1 cycle (5/22)): 23%
- ORR (CR+CRi+MLFS) ([3]; MLLr or NPM1m, ≥140 mg BID, prior menin inhibitor naïve, finished 1 cycle (10/22)): 45%
- CR+CRh ([3]; MLLr, ≥140 mg BID (2/12 patients)): 17%
- Objective Response Rate (ORR; CR+CRh+CRi+MLFS) ([3]; MLLr, ≥140 mg BID (8/12 patients)): 67%
- CR + CRh (ELN 2017) ([3]; MLLr, ≥140 mg BID, n=12): 2 (17%) n (%)
- Composite CR (ELN 2017) ([3]; MLLr, ≥140 mg BID, n=12): 5 (42%) n (%)
- Objective Response Rate (ELN 2017) ([3]; MLLr, ≥140 mg BID, n=12): 8 (67%) n (%)
- CR+CRh ([3]; MLLr, ≥140 mg BID, no prior menin inhibitor (5/22)): 22.7%
- CR+CRh ([3]; NPM1m AML, ≥140 mg BID, no prior menin inhibitor (3/13)): 23.1%
- ORR ([3]; NPM1m AML, ≥140 mg BID, no prior menin inhibitor (7/13)): 53.8%
- CR+CRh ([3]; NPM1m, ≥140 mg BID (3/9 patients)): 33%
- ORR ([3]; NPM1m, ≥140 mg BID (4/9 patients)): 44%
- CR + CRh (ELN 2017) ([3]; NPM1m, ≥140 mg BID, n=9): 3 (33%) n (%)
- Composite CR (ELN 2017) ([3]; NPM1m, ≥140 mg BID, n=9): 3 (33%) n (%)
- Objective Response Rate (ELN 2017) ([3]; NPM1m, ≥140 mg BID, n=9): 4 (44%) n (%)
- response achieved (ELN 2017) ([3]; a patient with MLLr, 120 mg BID Arm A): MLFS
- additional patients with MLLr with response per ELN2017 (CRh/CRi and MLFS) ([3]; lower dose levels): Two
- median time to CR+CRh ([3]; overall, ≥140 mg BID): 1.0 months
- median time to objective response ([3]; overall, ≥140 mg BID): 1.0 months
- Bone marrow blast reduction ([3]; patients with MLLr or NPM1m (FIG. 8)): observed
- SAE COVID-19, CTCAE Grade [4]: 3
- T/C ([5]; 100 mg/kg): 43.8%
- T/C ([5]; 200 mg/kg): 1.8%
- T/C ([6]; 100 mg/kg): 53.1%
- T/C ([6]; 200 mg/kg): 41.7%
